The structures appear in SMILES notation.

T1 sequence (P21453 whole entry): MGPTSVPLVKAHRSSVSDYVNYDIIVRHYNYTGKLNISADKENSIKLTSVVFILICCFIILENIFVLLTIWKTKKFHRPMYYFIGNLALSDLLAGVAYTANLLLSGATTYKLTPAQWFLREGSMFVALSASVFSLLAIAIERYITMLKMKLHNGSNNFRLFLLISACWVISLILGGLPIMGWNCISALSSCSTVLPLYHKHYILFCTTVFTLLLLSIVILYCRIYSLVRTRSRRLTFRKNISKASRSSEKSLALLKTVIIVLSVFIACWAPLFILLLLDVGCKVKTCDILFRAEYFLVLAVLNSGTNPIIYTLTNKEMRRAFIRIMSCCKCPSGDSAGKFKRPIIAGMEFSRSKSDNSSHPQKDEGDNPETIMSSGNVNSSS

This assay concerns the target T1, human S1P1 receptor (Homo sapiens, UniProt P21453).
T1 construct: expressed in transfected cells; membranes were used
In words: GTP γ35S binding assay for S1P1 activity. Format: biochemical. Particulars: membranes of cells stably expressing S1P1 receptor, agonist potency. On the procedure: Compounds were synthesized and tested for S1P1 activity using the GTP γ^355 binding assay. These compounds may be assessed for their ability to activate or block activation of the human S1P1 receptor in cells stably expressing the S1P1 receptor.
GTP γ^355 binding was measured in the medium containing (mM) HEPES 25, pH 7.4, MgCl2 10, NaCl 100, dithiothreitol 0.5, digitonin 0.003%, 0.2 nM GTP γ^355, and 5 μg membrane protein in a volume of 150 μl. Test compounds were included in the concentration range from 0.08 to 5,000 nM unless indicated otherwise. Membranes were incubated with 100 μM 5′-adenylylimidodiphosphate for 30 min, and subsequently with 10 μM GDP for 10 min on ice. Drug solutions and membrane were mixed, and then reactions were initiated by adding GTP γ^355 and continued for 30 min at 25° C. Reaction mixtures were filtered over Whatman GF/B filters under vacuum, and washed three times with 3 mL of ice-cold buffer (HEPES 25, pH7.4, MgCl2 10 and NaCl 100). Filters were dried and mixed with scintillant, and counted for ^35S activity using a β-counter. Agonist-induced GTP γ^355 binding was obtained by subtracting that in the absence of agonist. Binding data were analyzed using a non-linear regression method. In case of antagonist assay, the reaction mixture contained 10 nM […] in the presence of test antagonist at concentrations ranging from 0.08 to 5000 nM.
In turn, `O=P(O)(O)CCCNCc1ccc(-c2noc(CCCCc3ccccc3)n2)c2cccnc12` [Compound 1, {3-[({5-[5-(4-Phenylbutyl)-1,2,4-oxadiazol-3-yl]quinolin-8-yl}methyl)amino]propyl}phosphonic acid] had an EC50 of 0.00352 µM. In the case of `O=P(O)(O)CCCNCc1ccc(-c2noc(CCCc3ccccc3)n2)c2cccnc12` [Compound 2, {3-[({5-[5-(3-Phenylpropyl)-1,2,4-oxadiazol-3-yl]quinolin-8-yl}methyl)amino]propyl}phosphonic acid], the EC50 worked out at 0.00987 µM. The value for `O=P(O)(O)CCCNCc1ccc(-c2noc(CCCCCc3ccccc3)n2)c2cccnc12` [Compound 3, {3-[({5-[5-(5-Phenylpentyl)-1,2,4-oxadiazol-3-yl]quinolin-8-yl}methyl)amino]propyl}phosphonic acid] was 0.0467 µM; that for `O=P(O)(O)CCCNCc1ccc(-c2noc(CCCCc3ccccc3)n2)c2ccccc12` [Compound 4, {3-[({4-[5-(4-Phenylbutyl)-1,2,4-oxadiazol-3-yl]-1-naphthyl}methyl)amino]propyl}phosphonic acid] was 0.0249 µM. As to `O=P(O)(O)OCCNCc1ccc(-c2noc(CCCCc3ccccc3)n2)c2ccccc12` [Compound 6, 2-[({4-[5-(4-Phenylbutyl)-1,2,4-oxadiazol-3-yl]-1-naphthyl}methyl)amino]ethyl dihydrogen phosphate], a half-maximal response (EC50) required 0.0224 µM.

Source of the values: patent US8957051B2, “Bicyclic 1, 2, 4-oxadiazoles derivatives as sphingosine-1 phosphate receptors modulators” (Allergan, Inc., priority 2012, dated 2015).
